# Test results published in patent publication US10167262B2, “Herbicidal substituted 3-arylpyrazoles” (FMC CORPORATION, priority 2014, dated 2019).
# How the values were obtained:
# Type in all cases: in vivo
# [1] = tested on: waterhemp_RES1, (ALS & Triazine resistant common waterhemp, Amaranthus rudis); assay: Test E postemergence greenhouse test, plant response rating 0-100; details: scale 0 to 100
# Method in brief: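 Resistant waterhemp biotypes grown in peat/vermiculite medium and treated postemergence at 2–18 cm height (1- to 4-leaf stage). Kept in greenhouse 14 to 21 days, then visually rated against untreated controls on a 0–100 scale (0 no effect, 100 complete control).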
# [2] = tested on: waterhemp (common waterhemp, Amaranthus rudis); assay: Test E pre-/postemergence greenhouse test, plant response rating 0-100; details: Amaranthus tuberculatus, post-emergence, Postemergence, scale 0 to 100; for pest or weed control at 125 g/ha: 125 g ai/ha; for pest or weed control at 500 g/ha: 500 g ai/ha
# Method in brief: (§1)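 Seeds sown in silt loam were treated preemergence, and seedlings in peat-based potting medium were treated postemergence at the 1- to 4-leaf stage (2-18 cm tall). Test chemicals were formulated in a non-phytotoxic solvent mixture with surfactant. After 14-21 days in the greenhouse, injury was rated visually against untreated controls (0 = no effect, 100 = complete control).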
# soybean (Glycine max) = assay: as above; details: Glycine max, post-emergence, Postemergence, scale 0 to 100; for plant injury at 125 g/ha: 125 g ai/ha; for plant injury at 500 g/ha: 500 g ai/ha
# Method in brief: as §1
# [3] = tested on: field bindweed (Convolvulus arvensis); assay: as above; details: Convolvulus arvensis, post-emergence, Postemergence, scale 0 to 100; for pest or weed control at 125 g/ha: 125 g ai/ha; for pest or weed control at 500 g/ha: 500 g ai/ha
# Method in brief: as §1
Structure (SMILES),"Plant response rating, Waterhemp_RES1 ([1]; 125 g ai/ha)","Plant response rating, Waterhemp_RES1 ([1]; 500 g ai/ha)",pest or weed control at 125 g/ha [2] [%],pest or weed control at 500 g/ha [2] [%],plant injury at 125 g/ha (soybean (Glycine max)) [%],plant injury at 500 g/ha (soybean (Glycine max)) [%],pest or weed control at 125 g/ha [3] [%],pest or weed control at 500 g/ha [3] [%],"Plant response rating, Waterhemp_RES1 ([1]; 31 g ai/ha)","Plant response rating, Waterhemp_RES1 ([1]; 62 g ai/ha)","Plant response rating, Waterhemp_RES1 ([1]; 250 g ai/ha)",pest or weed control at 31 g/ha ([2]; 31 g ai/ha) [%],pest or weed control at 62 g/ha ([2]; 62 g ai/ha) [%],pest or weed control at 250 g/ha ([2]; 250 g ai/ha) [%],plant injury at 31 g/ha (soybean (Glycine max); 31 g ai/ha) [%],plant injury at 62 g/ha (soybean (Glycine max); 62 g ai/ha) [%],plant injury at 250 g/ha (soybean (Glycine max); 250 g ai/ha) [%],pest or weed control at 31 g/ha ([3]; 31 g ai/ha) [%],pest or weed control at 62 g/ha ([3]; 62 g ai/ha) [%],pest or weed control at 250 g/ha ([3]; 250 g ai/ha) [%]
"COC(OC)(c1ccccc1)c1c[nH]nc1-c1cc(Cl)cc(Cl)c1 [Compound 13, 3-(3,5-dichlorophenyl)-4-(dimethoxyphenylmethyl)-1H-pyrazole]",90,100,90,95,0,0,0,10,–,–,–,–,–,–,–,–,–,–,–,–
"CCOC(OCC)(c1ccccc1)c1c[nH]nc1-c1cc(Cl)cc(Cl)c1 [Compound 14, 3-(3,5-dichlorophenyl)-4-(diethoxyphenylmethyl)-1H-pyrazole]",95,100,98,100,0,0,0,0,90,95,100,90,95,100,0,0,0,0,0,0
